Results reported in patent US20080138462A1, “Lactobacillus buchneri strain LN5665 and its use to improve aerobic stability of silage” (Pioneer Hi-Bred International, Inc., priority 2006, published 2008).

Assay: Aerobic stability of grass silage (PVC silos, method of Honig)
Set-up: species or system ryegrass
Description: Second cut ryegrass was harvested at PLNC. The grass was determined to have an approximate dry matter of 35%.
Inoculation: Individual strains were supplied as fresh grown overnight culture. Cultures were adjusted to a standard concentration of 5.0×10^7 CFU/mL and applied using a syringe at a rate of 2.2 mL/kg of forage. The application rate for all strains was 1.1×10^5 CFU/g forage. Propionic acid (88%) was applied at a rate of 4.4 mL/kg fresh forage.
PVC Silos: PVC silos were filled at a packing density of 0.288 kg DM/silo (100 kg DM/m^3); approximately 0.82-0.95 kg/silo. Silos were air infused for 24 hours on days 28 and 42, and opened after 50-60 days of ensiling.
Aerobic Stability: The method of Honig (Proc. Of the Eurobac. Conf., P. Lingvall and S. Lindgren (ed.) (12-16 Aug. 1986) Swed. Univ. of Agric. Sci. Grass and Forage Report No. 3-1990. Pp. 76-81. Uppsala, Sweden.) was used for measuring aerobic stability (see Table 1). ROT is defined as the time, in hours, for the silage to heat 1.7° C. after exposure to air. Cumm_DD is the integral value of the area between the time ROT is attained and the end of the experiment. Aerobic dry matter loss (% dry matter) was determined relating the increase in temperature and the time to energy losses occurring in the silage.

CCC(=O)O [Propionic Acid, Propionic acid]
Aerobic deterioration compared with control grass silages: significantly less aerobic deterioration
